Source: patent US10829473B2, “Modulators of the cystic fibrosis transmembrane conductance regulator protein and methods of use” (AbbVie Overseas S.Á.R.L., priority 2017, dated 2020)
Where two headings read alike, the source gives them in different places. Marks after values point to notes of the source that are not given here.

Target: T1, F508delCFTR (Homo sapiens, UniProt P13569, DEL508-508)
T1 construct: expressed in transfected cells; host or cells: CFBE41o- human lung derived epithelial cells (CFBE41o-F508delCFTR-HRP), doxycycline-inducible
T1 sequence (P13569 with tags, fused parts or gaps DEL508-508): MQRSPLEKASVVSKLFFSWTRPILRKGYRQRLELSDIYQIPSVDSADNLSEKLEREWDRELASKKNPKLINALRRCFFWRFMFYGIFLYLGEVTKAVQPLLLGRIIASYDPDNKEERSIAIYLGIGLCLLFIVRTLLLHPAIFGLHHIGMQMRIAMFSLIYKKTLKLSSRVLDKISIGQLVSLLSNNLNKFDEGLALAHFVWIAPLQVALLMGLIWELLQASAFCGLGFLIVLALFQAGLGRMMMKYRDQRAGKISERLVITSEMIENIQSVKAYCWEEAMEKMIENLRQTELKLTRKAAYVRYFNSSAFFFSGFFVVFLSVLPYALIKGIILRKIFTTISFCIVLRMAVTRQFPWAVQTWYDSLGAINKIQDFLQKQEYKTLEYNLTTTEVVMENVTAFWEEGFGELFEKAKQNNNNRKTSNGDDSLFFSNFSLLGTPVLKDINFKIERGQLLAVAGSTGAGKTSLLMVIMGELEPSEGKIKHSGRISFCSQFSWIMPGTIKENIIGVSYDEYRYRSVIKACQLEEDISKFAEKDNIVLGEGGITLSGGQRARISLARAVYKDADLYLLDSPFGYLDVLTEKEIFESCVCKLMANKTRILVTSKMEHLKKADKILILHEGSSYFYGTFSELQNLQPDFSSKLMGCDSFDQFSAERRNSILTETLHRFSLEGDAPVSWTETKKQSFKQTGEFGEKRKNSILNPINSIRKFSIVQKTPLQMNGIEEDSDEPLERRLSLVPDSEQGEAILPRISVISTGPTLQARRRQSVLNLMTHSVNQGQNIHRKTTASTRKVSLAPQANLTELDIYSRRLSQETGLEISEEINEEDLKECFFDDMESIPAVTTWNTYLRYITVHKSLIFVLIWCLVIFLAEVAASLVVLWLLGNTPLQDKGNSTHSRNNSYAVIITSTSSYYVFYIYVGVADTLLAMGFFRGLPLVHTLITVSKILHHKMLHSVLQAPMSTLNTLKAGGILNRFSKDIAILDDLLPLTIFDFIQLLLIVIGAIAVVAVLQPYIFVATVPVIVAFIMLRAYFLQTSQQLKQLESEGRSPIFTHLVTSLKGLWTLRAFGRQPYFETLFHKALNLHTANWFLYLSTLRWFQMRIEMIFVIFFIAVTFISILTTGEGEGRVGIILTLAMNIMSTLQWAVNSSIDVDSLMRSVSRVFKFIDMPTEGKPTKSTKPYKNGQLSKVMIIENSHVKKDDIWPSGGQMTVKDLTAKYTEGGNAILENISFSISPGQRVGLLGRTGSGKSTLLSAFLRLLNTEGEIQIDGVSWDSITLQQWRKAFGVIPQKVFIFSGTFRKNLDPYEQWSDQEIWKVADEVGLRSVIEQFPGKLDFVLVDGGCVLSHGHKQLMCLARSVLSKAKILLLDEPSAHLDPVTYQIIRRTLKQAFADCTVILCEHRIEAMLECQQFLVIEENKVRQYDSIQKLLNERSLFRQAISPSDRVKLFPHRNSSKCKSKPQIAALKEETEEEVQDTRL
Test: Cell Surface Expression-Horse Radish Peroxidase (CSE-HRP) Assay;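 on EC50 (with co-corrector): co-corrector chromenyl benzoic acid corrector at 2 or 3 µM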
Assay type: cell-based
Settings: for Maximum % activity (with co-corrector) / Emax: maximum at any tested concentration; for Emax: read-out: Maximum % activity (without co-corrector)
Protocol: A cellular assay for measuring the F508delCFTR cell surface expression after correction with test compounds either without or with a co-corrector (2 μM of 3-[(2R,4R)-4-({[1-(2,2-difluoro-1,3-benzodioxol-5-yl)cyclopropyl]carbonyl}amino)-7-methoxy-3,4-dihydro-2H-chromen-2-yl]benzoic acid), was developed in human lung derived epithelial cell line (CFBE4lo−) (Veit G et al, (2012) Mol Biol Cell. 23(21): 4188-4202). The development was achieved by expressing the F508delCFTR mutation along with a horseradish peroxidase (HRP) in the fourth exofacial loop, and then measuring the HRP activity using luminescence readout from these cells, CFBE410-F508delCFTR-HRP, that were incubated overnight with the test corrector compounds, either without or with the co-corrector. For this primary assay, the CFBE410-F508delCFTR-HRP cells were plated in 384-well plates (Greiner Bio-one; Cat 781080) at 4,000 cells/well along with 0.5 μg/mL doxycycline to induce the F508delCFTR-HRP expression and further incubated at 37° C., 5% CO2 for 68-72 hours. The test compounds were then added either without or with a co-corrector at the required concentrations and further incubated for 18-24 hours at 33° C. The highest concentration tested was 20 μM or 30 μM (GI-1 to GIII-36) with an 8-point concentration response curve using a 3-fold dilution in both the test compound without or with the co-corrector. Three replicate plates were run to determine one EC50. All plates contained negative controls (dimethyl sulfoxide, DMSO) and positive control (2 μM or 3 μM (GI-1 to GIII-36) of 3-[(2R,4R)-4-({[1-(2,2-difluoro-1,3-benzodioxol-5-yl)cyclopropyl]carbonyl}amino)-7-methoxy-3,4-dihydro-2H-chromen-2-yl]benzoic acid) as well as on-plate concentration response of the positive control. Post incubation, the plates were washed 5× times with Dulbecco's phosphate buffered saline (DPBS), followed by the addition of the HRP substrate, luminol (50 4), and measuring the HRP activity using luminescence readout on EnVision® Multilabel Plate Reader (Perkin Elmer; product number 2104-0010). The raw counts from the experiment were analyzed using Accelrys® Assay Explorer v3.3.
Z′ greater than 0.5 was used as passing quality control criteria for the plates.
The Z′ is defined as: 1−[3*SDPositve Control+3*SDNegative Control/Absolute(MeanPositive Control−MeanNegative Control)] wherein “SD” is standard deviation.
The % activity measured at each of the 8 test concentrations of the test compound added either without or with a co-corrector (2 μM or 3 μM (GI-1 to GIII-36) of 3-[(2R,4R)-4-({[1-(2,2-difluoro-1,3-benzodioxol-5-yl)cyclopropyl]carbonyl}amino)-7-methoxy-3,4-dihydro-2H-chromen-2-yl]benzoic acid) was normalized to the on-plate positive control using the following formulae: % activity (Test compound without co-corrector)=[(test compound without co-corrector response DMSO response)/(positive control response DMSO response)]*100 % activity (Test compound with co-corrector)=[(test compound with co-corrector response DMSO response)/(positive control response DMSO response)]*100
The maximum % activity achieved for the test compound either without or with a co-corrector at any tested concentration is presented in Table 6 along with the respective EC50's calculated using the following general sigmoidal curve with variable Hill slope equation (described as Model 42 in the Accelrys® Assay Explorer v3.3 software): y=(a−d)/(1+(x/c)b)+d
General sigmoidal curve with concentration, response, top, bottom, EC50 and Hill slope. This model describes a sigmoidal curve with an adjustable baseline, a. The equation can be used to fit curves where response is either increasing or decreasing with respect to the independent variable, “x”.
“x” is a concentration of drug under test.
“a” is the maximum response, and “d” is the minimum response
“c” is the inflection point (EGO for the curve. That is, “y” is halfway between the lower and upper asymptotes when x=c.
“b” is the slope-factor or Hill coefficient. […]

[1] = test compound alone, without co-corrector, read-out: EC50 (without co-corrector)
[2] = with co-corrector, read-out: EC50 (with co-corrector)
[3] = test compound with co-corrector
[4] = test compound with co-corrector, read-out: EC50 (with co-corrector)
[5] = test compound without co-corrector
[6] = test compound without co-corrector, read-out: EC50 (without co-corrector)

COc1cccc(C2(C(=O)NS(=O)(=O)c3ccccc3C)CCOCC2)c1 [Example III-81, 4-(3-methoxyphenyl)-N-(2-methylbenzene-1-sulfonyl)oxane-4-carboxamide]
EC50 [1]: > 10 µM
Maximum % activity (with co-corrector) (with co-corrector): + (<150)
EC50 [2]: > 10 µM
Emax (without co-corrector): < 50%

COc1ccc2c(S(=O)(=O)NC(=O)C3(c4cc(C5CC5)cnc4OC(C)C)CC3)cccc2n1 [II-95]
EC50 [1]: < 3 µM
Maximum % activity (with co-corrector) (with co-corrector): +++ (≥350)
EC50 [2]: < 3 µM
Emax (without co-corrector): > 150%

CCc1cnc(OC(C)C)c(C2(C(=O)NS(=O)(=O)c3cccc4nc(C)ccc34)CC2)c1 [Example GI-40, 1-{5-ethyl-2-[(propan-2-yl)oxy]pyridin-3-yl}-N-(2-methylquinoline-5-sulfonyl)cyclopropane-1-carboxamide]
Maximum % activity (with co-corrector) [3]: +++ (≥350)
EC50 [4]: < 3 µM
Emax [5]: > 150%
EC50 [6]: < 3 µM

CC(C)Oc1ncccc1C1(C(=O)NS(=O)(=O)c2cccc3c2CCCN3)CC1 [GII-4, 1-{2-[(propan-2-yl)oxy]pyridin-3-yl}-N-(1,2,3,4-tetrahydroquinoline-5-sulfonyl)cyclopropane-1-carboxamide]
Maximum % activity (with co-corrector) [3]: ++ (≥150 and <350)
EC50 [4]: 3 to 10 µM
Emax [5]: 50 to 150%
EC50 [6]: 3 to 10 µM

COc1cc(C2(C(=O)NS(=O)(=O)c3cccc4ncccc34)CC2)c(OCC(C)C)cn1 [Example GI-19, 1-[2-methoxy-5-(2-methylpropoxy)pyridin-4-yl]-N-(quinoline-5-sulfonyl)cyclopropane-1-carboxamide]
EC50 [1]: 3 to 10 µM
Maximum % activity (with co-corrector) (with co-corrector): +++ (≥350)
EC50 [2]: < 3 µM
Emax (without co-corrector): > 150%

COc1ccc(C2CCC2)cc1C1(C(=O)NS(=O)(=O)c2cccc3c2CCN3)CC1 [Example I-54, 1-(5-cyclobutyl-2-methoxyphenyl)-N-(2,3-dihydro-1H-indole-4-sulfonyl)cyclopropane-1-carboxamide]
EC50 [1]: < 3 µM
Maximum % activity (with co-corrector) (with co-corrector): +++ (≥350)
EC50 [2]: < 3 µM
Emax (without co-corrector): > 150%

COc1ccc(C2CCC2)cc1C1(C(=O)NS(=O)(=O)c2cccc3nc(C)ccc23)CCC1 [Example I-33, 1-(5-cyclobutyl-2-methoxyphenyl)-N-(2-methylquinoline-5-sulfonyl)cyclobutane-1-carboxamide]
EC50 [1]: 3 to 10 µM
Maximum % activity (with co-corrector) (with co-corrector): +++ (≥350)
EC50 [2]: < 3 µM
Emax (without co-corrector): > 150%

COc1ccc(C2CCC2)cc1C1(C(=O)NS(=O)(=O)c2cccc3c2CCCN3)CCC1 [Example I-10, 1-(5-cyclobutyl-2-methoxyphenyl)-N-(1,2,3,4-tetrahydroquinoline-5-sulfonyl)cyclobutane-1-carboxamide]
EC50 [1]: 3 to 10 µM
Maximum % activity (with co-corrector) (with co-corrector): +++ (≥350)
EC50 [2]: < 3 µM
Emax (without co-corrector): > 150%

Cc1ccc2c(S(=O)(=O)NC(=O)C3(c4cc(C5CC5)cnc4OC(C)C)CC3)cccc2n1 [Example GI-60, 1-{5-cyclopropyl-2-[(propan-2-yl)oxy]pyridin-3-yl}-N-(2-methylquinoline-5-sulfonyl)cyclopropane-1-carboxamide]
Maximum % activity (with co-corrector) [3]: +++ (≥350)
EC50 [4]: < 3 µM
Emax [5]: > 150%
EC50 [6]: < 3 µM

CCC(C)c1ccc(OC)c(C2(C(=O)NS(=O)(=O)c3cccc4c3CCCN4)CCC2)c1 (stereo not drawn) [II-22]
EC50 [1]: 3 to 10 µM
Maximum % activity (with co-corrector) (with co-corrector): +++ (≥350)
EC50 [2]: < 3 µM
Emax (without co-corrector): > 150%

COc1ccc2c(S(=O)(=O)NC(=O)C3(c4cc(C5CCC5)cnc4OCC(C)C)CC3)cccc2n1 [II-94]
EC50 [1]: < 3 µM
Maximum % activity (with co-corrector) (with co-corrector): +++ (≥350)
EC50 [2]: < 3 µM
Emax (without co-corrector): > 150%

COc1cc(OC(C)C)c(C2(C(=O)NS(=O)(=O)c3cccc4c3CCCN4)CC2)cn1 [GII-24, 1-{6-methoxy-4-[(propan-2-yl)oxy]pyridin-3-yl}-N-(1,2,3,4-tetrahydroquinoline-5-sulfonyl)cyclopropane-1-carboxamide]
Maximum % activity (with co-corrector) [3]: ++ (≥150 and <350)
EC50 [4]: 3 to 10 µM
EC50 (without co-corrector) [5]: ++^a
Emax [5]: 50 to 150%

CC(C)Oc1ncc(N(C)C)cc1C1(C(=O)NS(=O)(=O)c2cccc3[nH]ccc23)CC1 [Example GI-73, 1-{5-(dimethylamino)-2-[(propan-2-yl)oxy]pyridin-3-yl}-N-(1H-indole-4-sulfonyl)cyclopropane-1-carboxamide]
Maximum % activity (with co-corrector) [3]: +++ (≥350)
EC50 [4]: < 3 µM
Emax [5]: > 150%
EC50 [6]: 3 to 10 µM

CCCc1nc(C(F)(F)F)ccc1C1(C(=O)NS(=O)(=O)c2cccc3ncccc23)CC1 [Example GI-4, 1-[2-propyl-6-(trifluoromethyl)pyridin-3-yl]-N-(quinoline-5-sulfonyl)cyclopropane-1-carboxamide]
EC50 [1]: 3 to 10 µM
Maximum % activity (with co-corrector) (with co-corrector): +++ (≥350)
EC50 [2]: < 3 µM
Emax (without co-corrector): > 150%

CCOc1ccc(C)cc1C1(C(=O)NS(=O)(=O)c2cccc3nc(C)ccc23)CC1 [Example I-83, 1-(2-ethoxy-5-methylphenyl)-N-(2-methylquinoline-5-sulfonyl)cyclopropane-1-carboxamide]
EC50 [1]: < 3 µM
Maximum % activity (with co-corrector) (with co-corrector): +++ (≥350)
EC50 [2]: < 3 µM
Emax (without co-corrector): > 150%

COc1ccc(C2(OC)CCC2)cc1C1(C(=O)NS(=O)(=O)c2cccc3ncccc23)CC1 [Example I-88, 1-[2-methoxy-5-(1-methoxycyclobutyl)phenyl]-N-(quinoline-5-sulfonyl)cyclopropane-1-carboxamide]
EC50 [1]: 3 to 10 µM
Maximum % activity (with co-corrector) (with co-corrector): +++ (≥350)
EC50 [2]: < 3 µM
Emax (without co-corrector): > 150%

COc1cc(C2CCC2)cc(OC)c1C1(C(=O)NS(=O)(=O)c2cccc3nc(N)ccc23)CC1 [II-70]
EC50 [1]: < 3 µM
Maximum % activity (with co-corrector) (with co-corrector): +++ (≥350)
EC50 [2]: < 3 µM
Emax (without co-corrector): > 150%

COc1ccc(C2CCC2)cc1C1(C(=O)NS(=O)(=O)c2cccc3ncccc23)CC1 [Example I-17, 1-(5-cyclobutyl-2-methoxyphenyl)-N-(quinoline-5-sulfonyl)cyclopropane-1-carboxamide]
EC50 [1]: < 3 µM
Maximum % activity (with co-corrector) (with co-corrector): +++ (≥350)
EC50 [2]: < 3 µM
Emax (without co-corrector): > 150%

COc1ccc(C2CCC2)cc1C1(C(=O)NS(=O)(=O)c2cccc3ccc(C)nc23)CC1 [Example I-62, 1-(5-cyclobutyl-2-methoxyphenyl)-N-(2-methylquinoline-8-sulfonyl)cyclopropane-1-carboxamide]
EC50 [1]: < 3 µM
Maximum % activity (with co-corrector) (with co-corrector): +++ (≥350)
EC50 [2]: < 3 µM
Emax (without co-corrector): > 150%

COc1cccc(C2(C(=O)NS(=O)(=O)c3cccc4ncccc34)CC2)c1 [II-56]
EC50 [1]: 3 to 10 µM
Maximum % activity (with co-corrector) (with co-corrector): +++ (≥350)
EC50 [2]: 3 to 10 µM
Emax (without co-corrector): > 150%

CCOc1ccc(C)cc1C1(C(=O)NS(=O)(=O)c2cccc3[nH]ccc23)CC1 [II-85]
EC50 [1]: < 3 µM
Maximum % activity (with co-corrector) (with co-corrector): +++ (≥350)
EC50 [2]: < 3 µM
Emax (without co-corrector): > 150%
